Experimental findings from patent publication US20090069370A1, “AZACYCLYLISOQUINOLINONE AND ISOINDOLINONE DERIVATIVES AS HISTAMINE-3 ANTAGONISTS” (Wyeth, priority 2007, published 2009) are described below.

As usually defined, the Ki is the equilibrium dissociation constant of an inhibitor or competing ligand from its target. A lower Ki goes with tighter binding.

Where a name gives a salt, the structure may show the parent alone. Bounds are passed on as bounds.

The target in this experiment is T1, Human Histamine H3 Receptor (Homo sapiens, UniProt Q9Y5N1).
T1 construct: expressed in transfected cells; host or cells: HEK293T cells, stably transfected; membrane preparation
T1 sequence (Q9Y5N1 whole entry): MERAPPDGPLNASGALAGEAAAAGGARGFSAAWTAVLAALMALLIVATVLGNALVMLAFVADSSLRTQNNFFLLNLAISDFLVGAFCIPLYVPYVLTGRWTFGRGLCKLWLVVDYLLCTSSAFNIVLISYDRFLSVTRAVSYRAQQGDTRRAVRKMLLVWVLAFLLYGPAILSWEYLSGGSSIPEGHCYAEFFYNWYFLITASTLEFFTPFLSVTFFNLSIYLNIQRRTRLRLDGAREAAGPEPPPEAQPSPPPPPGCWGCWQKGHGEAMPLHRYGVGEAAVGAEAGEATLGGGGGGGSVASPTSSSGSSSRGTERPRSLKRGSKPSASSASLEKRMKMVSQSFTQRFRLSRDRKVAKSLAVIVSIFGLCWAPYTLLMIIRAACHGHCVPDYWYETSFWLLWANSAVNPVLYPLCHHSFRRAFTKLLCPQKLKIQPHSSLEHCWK
Description: Methyl histamine binding in human histamine H3 receptor cell line. Particulars: membranes of stably transfected HEK293T cells; radioligand 1 nM; Ki from IC50 by Cheng-Prusoff. The protocol: Evaluation of Methyl Histamine Binding in Human Histamine H3 Receptor Cell Line
The affinity of test compounds for the histamine 3 (H3) receptor is evaluated in the following manner. Stably transfected HEK293T cells are grown in DMEM containing 10% heat inactivated FBS and G-418 (500 ug/ml). Cells are scraped from the plate, transferred to centrifuge tubes, washed one time in PBS by centrifugation in a Sorvall RT7 Plus centrifuge (2000 rpm 10 minutes, 4° C.). The resulting pellets are stored at −80° C. until ready for use. Cells are re-suspended in buffer (50 mM Tris pH=7.5) and placed in a Dounce homogenizer, douncing ten times to homogenize cells. The homogenate is spun down by centrifugation (Sorvall RT7 Plus, 1800 rpm 10 minutes, 4° C.). The supernatant is placed in a Corex tube and spun down by centrifugation (Sorvall RC 5c Plus, 17,000 rpm 20 minutes, 4° C.). The pellet is resuspended in buffer (50 mM Tris, pH 7.5). Protein concentration (ug/ul) is determined using the Micro-BCA Protein Determination. The binding assay is set up in a 96 well microtiter plate in a total volume of 250 uL. Non-specific binding is determined in the presence of 10 uM clobenpropit. The final radioligand concentration is 1 nM. The test compound is serially diluted using the Beckman Biomek2000 to a final approximate range of 100 uM to 100 pM. Membranes are suspended in buffer, homogenized in 2 bursts of ten seconds using a Vitris mechanical homogenizer set at power setting 5. Ten μg of membranes are added to each well. Following a one hour incubation at 30° C., the reaction is terminated by the addition of ice cold buffer and rapid filtration with a Packard Filtermate Harvester through a GF/B filter pre-soaked with 1% PEI for one hour. The plate is dried for one hour at 37° C. and 60 μL Microscint Scintillant is added to each well. The CPM per well is measured on a Packard Top Count NXT. Ki values are determined in nM. The Ki is calculated from the IC50 (i.e. the concentration of competing ligand which displaces 50% of the specific binding of the radioligand). CPM values are expressed as % specific binding and plotted vs compound concentration. A curve is fitted using a four-parameter logistic fit and the IC50 value is determined. The Ki is calculated from this using the Cheng-Prusoff equation: […]=IC50/1+(L/Kd) where L=concentration of free radioligand used in the assay, and Kd is the dissociation constant of the radioligand for the receptor. L is determined for each experiment by counting an aliquot of the diluted radioligand (corresponding to that added to each well) and the Kd has previously been determined under identical conditions for this cell line/radioligand.
`O=C(c1ccc(-c2ccc3c(c2)CCN([C@@H]2CCCN(C4CCCC4)C2)C3=O)cc1)N1CCCC1` [Example 71, 2-[(3R)-1-cyclopentylpiperidin-3-yl]-6-[4-(pyrrolidin-1-ylcarbonyl)phenyl]-3,4-dihydroisoquinolin-1(2H)-one] yielded a Ki of 10.1 to 25 nM.
`CNC(=O)c1ccc(Oc2ccc3c(c2)CCN([C@@H]2CCN(C4CCCC4)C2)C3=O)cc1` [Example 37, 4-({2-[(3R)-1-cyclopentylpyrrolidin-3-yl]-1-oxo-1,2,3,4-tetrahydroisoquinolin-6-yl}oxy)-N-methylbenzamide] came in with a Ki of at most 10 nM.
As for `CCNC(=O)c1ccc(-c2ccc3c(c2)CCN([C@@H]2CCN(C(C)C)C2)C3=O)cc1` [Example 83, N-ethyl-4-{2-[(3R)-1-isopropylpyrrolidin-3-yl]-1-oxo-1,2,3,4-tetrahydroisoquinolin-6-yl}benzamide], the figure is at most 10 nM; as for `CNC(=O)c1ccc(-c2ccc3c(c2)CCN([C@@H]2CCN(C(C)C)C2)C3=O)c(F)c1` [Example 85, 3-fluoro-4-{2-[(3R)-1-isopropylpyrrolidin-3-yl]-1-oxo-1,2,3,4-tetrahydroisoquinolin-6-yl}-N-methylbenzamide], at most 10 nM.
As to `O=C(c1ccc2c(c1)CCN([C@@H]1CCN(C3CCC3)C1)C2=O)N1CCCC1` [Example 87, 2-[(3R)-1-cyclobutylpyrrolidin-3-yl]-6-(pyrrolidin-1-ylcarbonyl)-3,4-dihydroisoquinolin-1(2H)-one hydrochloride], the Ki was in the range of 25.1 to 50 nM.
For `O=C(c1ccc(-c2ccc3c(c2)CCN([C@@H]2CCN(CC4CCCC4)C2)C3=O)cc1)N1CCCC1` [Example 59, 2-[(3R)-1-(cyclopentylmethyl)pyrrolidin-3-yl]-6-[4-(pyrrolidin-1-ylcarbonyl)phenyl]-3,4-dihydroisoquinolin-1(2H)-one] the value was 10.1 to 25 nM; for `CCN1CCC(N2Cc3cc(-c4ccc(C#N)cc4)ccc3C2=O)CC1` [Example 24, 4-[2-(1-Ethylpiperidin-4-yl)-1-oxo-2,3-dihydro-1H-isoindol-5-yl]benzonitrile], over 100 nM.
For `O=C(NC1CCCC1)c1ccc2c(c1)CCN([C@@H]1CCN(C3CCC3)C1)C2=O` [Example 88, 2-[(3R)-1-cyclobutylpyrrolidin-3-yl]-N-cyclopentyl-1-oxo-1,2,3,4-tetrahydroisoquinoline-6-carboxamide hydrochloride], the Ki was 10.1 to 25 nM.
For the molecule `O=C(c1ccc(-c2ccc3c(c2)CCN(C2CCN(C4CCC4)CC2)C3=O)cc1)N1CCCC1` [Example 65, 2-(1-cyclobutylpiperidin-4-yl)-6-[4-(pyrrolidin-1-ylcarbonyl)phenyl]-3,4-dihydroisoquinolin-1(2H)-one], the Ki is at most 10 nM.
As to `CNC(=O)c1ccc(-c2ccc3c(c2)CCN([C@@H]2CCN(C(C)C)C2)C3=O)cc1` [Example 82], the Ki is at most 10 nM.
As for `CC(C)NC(=O)c1ccc(Oc2ccc3c(c2)CCN(C2CCN(C4CCC4)CC2)C3=O)cc1` [Example 6, 4-{[2-(1-Cyclobutylpiperidin-4-yl)-1-oxo-1,2,3,4-tetrahydroisoquinolin-6-yl]oxy}-N-isopropylbenzamide], the Ki fell in the range of 10.1 to 25 nM.
As for `CNC(=O)c1ccc(Oc2ccc3c(c2)CCN([C@@H]2CCN(C4CCC4)C2)C3=O)cc1` [Example 33, 4-({2-[(3R)-1-cyclobutylpyrrolidin-3-yl]-1-oxo-1,2,3,4-tetrahydroisoquinolin-6-yl}oxy)-N-methylbenzamide], the figure is at most 10 nM; as for `O=C(c1ccc(-c2ccc3c(c2)CCN([C@@H]2CCN(C4CCC4)C2)C3=O)c(F)c1)N1CCCC1` [Example 79, 2-[(3R)-1-cyclobutylpyrrolidin-3-yl]-6-[2-fluoro-4-(pyrrolidin-1-ylcarbonyl)phenyl]-3,4-dihydroisoquinolin-1(2H)-one], at most 10 nM.
For the molecule `O=C(c1ccc(-c2ccc3c(c2)CCN([C@@H]2CCN(Cc4ccoc4)C2)C3=O)cc1)N1CCCC1` [Example 60, 2-[(3R)-1-(furan-3-ylmethyl)pyrrolidin-3-yl]-6-[4-(pyrrolidin-1-ylcarbonyl)phenyl]-3,4-dihydroisoquinolin-1(2H)-one], the Ki is at most 10 nM.
